According to ChEMBL document CHEMBL5346873, “Strategic modification of low-activity natural antimicrobial peptides confers antibacterial potential in vitro and in vivo” (Eur J Med Chem, 2023):
Calls of active or inactive are those of the source. The rule behind the calls is not given here.

Assays:
Enterococcus faecium = assay: Antibacterial activity against Enterococcus faecium incubated for 16 to 20 hrs; assay type: functional; details: time 16-20 hrs
Salmonella typhimurium = assay: Bactericidal activity against Salmonella typhimurium incubated overnight; assay type: functional, Salmonella enterica subsp. enterica serovar Typhimurium; details: Salmonella enterica
Vibrio vulnificus [1] = assay: Bactericidal activity against Vibrio vulnificus 204 at MIC after 5 mins; assay type: functional, organism-based
Streptococcus iniae = assay: Antibacterial activity against Streptococcus iniae in presence of human serum; assay type: functional, organism-based
Pseudomonas aeruginosa [2] = assay: Additive antibacterial activity against Pseudomonas aeruginosa in presence of doxycycline by checkerboard microtiter plate assay; assay type: functional
Escherichia coli [3] = assay: Additive antibacterial activity against Escherichia coli in presence of doxycycline by checkerboard microtiter plate assay; assay type: functional
Klebsiella aerogenes [4] = assay: Additive antibacterial activity against Enterobacter aerogenes in presence of doxycycline by checkerboard microtiter plate assay; assay type: functional
Klebsiella pneumoniae [5] = assay: Synergistic antibacterial activity against Klebsiella pneumoniae expressing NDM1 in presence of meropenem by checkerboard microtiter plate assay; assay type: functional
Pseudomonas aeruginosa [6] = assay: Additive antibacterial activity against Pseudomonas aeruginosa assessed as doxycycline MIC by checkerboard microtiter plate assay; assay type: functional
Escherichia coli [7] = assay: Additive antibacterial activity against Escherichia coli assessed as doxycycline MIC by checkerboard microtiter plate assay; assay type: functional
Klebsiella aerogenes [8] = assay: Additive antibacterial activity against Enterobacter aerogenes assessed as doxycycline MIC by checkerboard microtiter plate assay; assay type: functional
Klebsiella pneumoniae [9] = assay: Synergistic antibacterial activity against Klebsiella pneumoniae expressing NDM1 assessed as meropenem MIC by checkerboard microtiter plate assay; assay type: functional
Pseudomonas aeruginosa [10] = assay: Additive antibacterial activity against Pseudomonas aeruginosa assessed as fractional inhibitory concentration in presence of doxycycline by checkerboard microtiter plate assay; assay type: functional
Escherichia coli [11] = assay: Additive antibacterial activity against Escherichia coli assessed as fractional inhibitory concentration in presence of doxycycline by checkerboard microtiter plate assay; assay type: functional
Klebsiella aerogenes [12] = assay: Additive antibacterial activity against Enterobacter aerogenes assessed as fractional inhibitory concentration in presence of doxycycline by checkerboard microtiter plate assay; assay type: functional
Klebsiella pneumoniae [13] = assay: Synergistic antibacterial activity against Klebsiella pneumoniae expressing NDM1 assessed as fractional inhibitory concentration in presence of meropenem by checkerboard microtiter plate assay; assay type: functional
Vibrio vulnificus [14] = assay: Antibacterial activity against Vibrio vulnificus infected in BALB/c mouse wound infection model assessed as reduction in bacterial infection at 6.25 ug per animal administered 12 hrs post infection and measured for 14 days; assay type: functional, organism-based; details: dose 6.25 µg, time 14.0 day
Vibrio vulnificus [15] = assay: Antibacterial activity against Vibrio vulnificus infected in BALB/c mouse wound infection model assessed as reduction in wound infection rate at 6.25 ug per animal administered 12 hrs post infection and measured for 14 days; assay type: functional, organism-based; details: dose 6.25 µg, time 14.0 day
Vibrio vulnificus [16] = assay: Antibacterial activity against Vibrio vulnificus infected in BALB/c mouse wound infection model assessed as survival at 6.25 ug per animal administered 12 hrs post infection and measured for 14 days; assay type: functional; details: dose 6.25 µg; time 14 day
Vibrio vulnificus [17] = assay: Bactericidal activity against Vibrio vulnificus 204 at MIC after 30 mins; assay type: functional; details: 0.5 h
Pseudomonas aeruginosa [18] = assay: Antibacterial activity against Pseudomonas aeruginosa in presence of doxycycline; assay type: functional
Pseudomonas aeruginosa [19] = assay: Antibacterial activity against Pseudomonas aeruginosa assessed as doxycycline MIC; assay type: functional
Pseudomonas aeruginosa [20] = assay: Antibacterial activity against Pseudomonas aeruginosa assessed as fractional inhibitory concentration in presence of doxycycline; assay type: functional
Escherichia coli [21] = assay: Synergistic antibacterial activity against Escherichia coli in presence of doxycycline; assay type: functional
Escherichia coli [22] = assay: Synergistic antibacterial activity against Escherichia coli assessed as doxycycline MIC; assay type: functional
Escherichia coli [23] = assay: Synergistic antibacterial activity against Escherichia coli assessed as fractional inhibitory concentration in presence of doxycycline; assay type: functional
Klebsiella aerogenes [24] = assay: Antibacterial activity against Enterobacter aerogenes in presence of doxycycline; assay type: functional
Klebsiella aerogenes [25] = assay: Antibacterial activity against Enterobacter aerogenes assessed as doxycycline MIC; assay type: functional
Klebsiella aerogenes [26] = assay: Antibacterial activity against Enterobacter aerogenes assessed as fractional inhibitory concentration; assay type: functional
Klebsiella pneumoniae [27] = assay: Additive antibacterial activity against Klebsiella pneumoniae expressing NDM1 in presence of meropenem; assay type: functional
Klebsiella pneumoniae [28] = assay: Additive antibacterial activity against Klebsiella pneumoniae expressing NDM1 assessed as meropenem MIC; assay type: functional
Klebsiella pneumoniae [29] = assay: Additive antibacterial activity against Klebsiella pneumoniae expressing NDM1 assessed as fractional inhibitory concentration in presence of meropenem; assay type: functional
Vibrio vulnificus [30] = assay: Antibacterial activity against Vibrio vulnificus infected in BALB/c mouse wound infection model assessed as reduction in bacterial infection at 12.5 ug per animal administered 12 hrs post infection and measured for 14 days; assay type: functional, organism-based; details: dose 12.5 µg, time 14.0 day
Vibrio vulnificus [31] = assay: Antibacterial activity against Vibrio vulnificus infected in BALB/c mouse wound infection model assessed as reduction in wound infection rate at 12.5 ug per animal administered 12 hrs post infection and measured for 14 days; assay type: functional, organism-based; details: dose 12.5 µg, time 14.0 day
Vibrio vulnificus [32] = assay: Antibacterial activity against Vibrio vulnificus infected in BALB/c mouse wound infection model assessed as survival at 12.5 ug per animal administered 12 hrs post infection and measured for 14 days; assay type: functional; details: dose 12.5 µg; time 14 day

H-FKWKSVLKGVKGFVKGYF-OH
MIC (Enterococcus faecium): 25 µg/mL
MBC (Salmonella typhimurium): 12.5 µg/mL
Activity (Vibrio vulnificus [1]): Active
Activity (Streptococcus iniae): Active
MIC (Pseudomonas aeruginosa [2]): 12.5 µg/mL
MIC (Escherichia coli [3]): 3.12 µg/mL
MIC (Klebsiella aerogenes [4]): 6.25 µg/mL
MIC (Klebsiella pneumoniae [5]): 6.25 µg/mL
MIC (Pseudomonas aeruginosa [6]): 6.25 µg/mL
MIC (Escherichia coli [7]): 0.024 µg/mL
MIC (Klebsiella aerogenes [8]): 0.78 µg/mL
MIC (Klebsiella pneumoniae [9]): 3.12 µg/mL
FIC (Pseudomonas aeruginosa [10]): 1
FIC (Escherichia coli [11]): 0.53
FIC (Klebsiella aerogenes [12]): 1
FIC (Klebsiella pneumoniae [13]): 0.26
Activity (Vibrio vulnificus [14]): Active
Activity (Vibrio vulnificus [15]): inactive
Activity (Vibrio vulnificus [16]): 20%

H-KKCIAKAILKKAKKLLKKLVNP-OH
MIC (Enterococcus faecium): > 100 µg/mL
MBC (Salmonella typhimurium): 100 µg/mL
Activity (Vibrio vulnificus [17]): 100%
MIC (Pseudomonas aeruginosa [18]): 25 µg/mL
MIC (Pseudomonas aeruginosa [19]): 1.56 µg/mL
FIC (Pseudomonas aeruginosa [20]): 1.12
MIC (Escherichia coli [21]): 6.25 µg/mL
MIC (Escherichia coli [22]): 0.195 µg/mL
FIC (Escherichia coli [23]): 0.5
MIC (Klebsiella aerogenes [24]): 6.25 µg/mL
MIC (Klebsiella aerogenes [25]): 0.048 µg/mL
FIC (Klebsiella aerogenes [26]): 1.03
MIC (Klebsiella pneumoniae [27]): 12.5 µg/mL
MIC (Klebsiella pneumoniae [28]): 3.12 µg/mL
FIC (Klebsiella pneumoniae [29]): 0.51
Activity (Vibrio vulnificus [30]): Active
Activity (Vibrio vulnificus [31]): inactive
Activity (Vibrio vulnificus [32]): 80%
